# Assay results published in patent publication US11883492B2, “Combination treatment of chemoresistant cancers” (THE REGENTS OF THE UNIVERSITY OF CALIFORNIA, priority 2018, dated 2024).
# Tests used:
# [1] = system: AKT, BMI1; assay: Wnt5a-induced AKT activation and BMI1 expression (immunoblot); type: cell-based; conditions: wt-Hs578T
# Description: FIGS. 8A-8B. The figures show Enhanced BMI1 Expression Induced By Wnt5a Is Dependent On Activation Of AKT. (FIG. 8A), BMI1 mRNA level in Hs578T cells treated with Wnt5a at 100 ng/ml at indicated time point were examined by quantitative PCR (qPCR). Data shown were the mean expression levels of BMI1 relative to time 0 samples in triplicate and normalized with respect to GAPDH. Error bars indicate SEM. (FIG. 8B), Hs578T cells were cultured in serum-free medium, pre-treated with or without MK-2206 for 3 hours, and then stimulated with or without Wnt5a at 100 ng/ml for 6 hours. BMI1, pAKT and AKT were examined on these samples via immunoblot analyses. Numbers below the row for AKT provide the ratios of band densities of pAKT to AKT that were normalized to that of samples treated for 0 minutes with Wnt5a. β-Actin served as protein-loading control. Numbers below the row for BMI1 provide the ratios of band densities of BMI1 to β-Actin, normalized with respect to that of samples treated for 0 minutes with Wnt5a.
# Immunoblot analyses. Cells used for examination for proteins via immunoblot analysis were treated with control antibody or cirmtuzumab (50 μg/ml) for overnight and then were cultured in medium supplemented with or without recombinant Wnt5a (100 ng/ml). […] The protein concentration was determined using a bicinchoninic acid protein assay (Pierce). […]
# [2] = system: PDX4; assay: Tumorigenicity (re-engraftment) assay with tumor cells of PDX4 removed from treated mice; type: in vivo, Rag2−/−γc−/− mice; conditions: for Tumor incidence (mice with tumors/mice implanted): cells isolated from PDX4 of paclitaxel-treated mice (Table 6, FIG. 2E)
# Excerpt: (§1) Patient-Derived xenografts. Four-to-eight-week-old female Rag2−/−γc−/− mice were used in this study following the care and use of laboratory animal guidelines of National Institutes of Health (NIH). The UC San Diego Medical Experimental Animal Care Committee approved the study protocol. The mice were housed in laminar-flow cabinets under specific pathogen-free conditions and fed ad libitum. The PDX were established using mechanically minced fresh breast cancer specimens. Early passage (P1-P5) of primary tumor tissues from these PDX models were mechanically minced, enzymatically and mechanically dissociated using GentleMACS Dissociator (Miltenyi Biotec), in accordance to the manufacturer's instruction. Erythrocytes were removed via density gradient centrifugation in Percoll™ Plus (GE Healthcare Life Sciences, CC-17-5442-01).
# (§2) Tumorigenicity Assay. Cells were suspended in Mammary-Epithelial Growth Medium (MEGM), mixed with Matrigel (BD Biosciences, San Diego, CA) at a 1:1 ratio, and then transplanted into the mammary pads of Rag2−/−γc−/− mice. We monitored the mice weekly for the development of tumors. We extirpated the tumor to examine the tumor cells for expression of ROR1 at 10 days after treatment with 13.4 mg/kg paclitaxel via intravenously injection for consecutive 5 days. To examine for metastases, we harvested the lungs of 6 mice from each treatment group at 42 or 48 days post-transplantation and fixed the tissue with 10%-formalin, prior to embedding in paraffin. Each paraffin block was cut into 200-μm sections. Tumor foci were scored in a blinded fashion by a board-certified pathologist. To test whether cirmtuzumab alone or in combination with paclitaxel impaired engraftment of primary breast tumor cells, 1×10^5 single cells isolated from PDX4 or PDX5 were injected into the mammary pads of 4- to 6-week-old Rag2−/−γc−/− mice. When tumor size reached 300 mm3, 13.4 mg/kg paclitaxel was injected intravenously for consecutive 5 days or/and 10 mg/kg of cirmtuzumab was injected intravenously at day 0, day 7 and then biweekly.
# [3] = system: tumor cells from PDX4; assay: Cytotoxicity of paclitaxel on PDX tumor cells in vitro after cirmtuzumab or hIgG; type: cell-based; conditions: Homo sapiens
# Description: FIG. 10. […] Single cell suspension of PDX4 or PDX5 samples were treated with cirmtuzumab or control antibody with or without increasing concentration of paclitaxel for 24 hours. Data are shown as the mean (±SEM) percentage of viable cells of triplicated samples from each of the treatments as determined by flow cytometry analysis. An asterisk indicates P<0.05 and ** indicates P<0.01 as determined by Student's t-Test.
# We treated equivalent numbers of tumor cells from PDX4 or PDX5 with cirmtuzumab or control hIgG at 50 μg/ml overnight and then cultured the cells in separate wells in triplicate with increasing concentrations of paclitaxel.
# [4] = system: PDX5; assay: Proportion of ROR1+ cells in residual PDX5 tumors after paclitaxel (flow cytometry); type: in vivo, Rag2−/−γc−/− mice; conditions: PDX5, mice treated with paclitaxel 13.4 mg/kg; untreated 8.5%±5.8%
# Description: as §2
# (§3) Flow cytometry analysis. […]
# [5] = system: breast cancer PDX; assay: Capacity of PDX tumor cells from treated mice to form secondary PDX; type: in vivo, Rag2−/−γc−/− mice; conditions: cirmtuzumab 10 mg/kg, paclitaxel 13.4 mg/kg or both (FIG. 5C)
# Excerpt: as §1
# Tumorigenicity Assay. Cells were suspended in Mammary-Epithelial Growth Medium (MEGM), mixed with Matrigel (BD Biosciences, San Diego, CA) at a 1:1 ratio, and then transplanted into the mammary pads of Rag2−/−γc−/− mice. We monitored the mice weekly for the development of tumors. We extirpated the tumor to examine the tumor cells for expression of ROR1 at 10 days after treatment with 13.4 mg/kg paclitaxel via intravenously injection for consecutive 5 days. […] Tumor foci were scored in a blinded fashion by a board-certified pathologist. […]
# [6] = system: breast cancer PDX (PDX4, PDX5); assay: Tumor growth of breast-cancer PDX in mice; type: in vivo, Rag2−/−γc−/− mice
# Excerpt: as §1
# as §2, with “When tumor size reached 300 mm3, 13.4 mg/kg paclitaxel was injected intravenously for consecutive 5 days or/and 10 mg/kg of cirmtuzumab was injected intravenously at day 0, day 7 and then biweekly.” left out
# Control groups were injected with hIgG instead of cirmtuzumab. The tumor volume (v) was determined using the formula v=(length)×(width)2×0.4.
# [7] = system: PDX4; assay: Proportion of ROR1+ cells in residual PDX4 tumors after paclitaxel (flow cytometry); type: in vivo, Rag2−/−γc−/− mice; conditions: PDX4, mice treated with paclitaxel 13.4 mg/kg; untreated 4.5%±1.1%
# Description: as §2, §3
# [8] = system: PDX4 or PDX5; assay: CSC features (ALDH1, spheroids, Matrigel invasion, re-engraftment) of PDX tumors from paclitaxel-treated mice; type: in vivo, Rag2−/−γc−/− mice
# Description: as §2, §3
# [9] = system: PDX5; assay: Tumorigenicity (re-engraftment) assay with tumor cells of PDX5 removed from treated mice; type: in vivo, Rag2−/−γc−/− mice; conditions: for Tumor incidence (mice with tumors/mice implanted): cells isolated from PDX5 of paclitaxel-treated mice (Table 6, FIG. 2E)
# Excerpt: as §1, §2
smiles,measurement,setting,value
NC1(c2ccc(-c3nc4ccn5c(=O)[nH]nc5c4cc3-c3ccccc3)cc2)CCC1 [MK-2206],Wnt5a-enhanced expression of BMI1,[1],inhibited the capacity of Wnt5a to enhance expression of BMI1
same,Wnt5a-induced activation of AKT,[1],impaired the capacity of Wnt5a to induce activation of AKT
CC(=O)O[C@H]1C(=O)[C@@]2(C)[C@H]([C@H](OC(=O)c3ccccc3)[C@]3(O)C[C@H](OC(=O)[C@H](O)[C@@H](NC(=O)c4ccccc4)c4ccccc4)C(C)=C1C3(C)C)[C@]1(OC(C)=O)CO[C@@H]1C[C@@H]2O [paclitaxel],Mice that developed PDX/mice engrafted,"[2]; 1 × 10^4 cells from PDX4 that relapsed after therapy (Table 8, FIG. 5C)",5/5
same,Mice that developed PDX/mice engrafted,"[2]; 1 × 10^5 cells from PDX4 that relapsed after therapy (Table 8, FIG. 5C)",5/5
same,Tumor incidence (mice with tumors/mice implanted),[2]; 10^3 cells re-implanted,4/5
same,Tumor incidence (mice with tumors/mice implanted),[2]; 10^4 cells re-implanted,5/5
same,Frequency of Tumorigenic Cell,"[2]; PDX4 from paclitaxel-treated mice, ELDA software (Table 6)",1/622
same,IC50,[3]; with cirmtuzumab 50 μg/ml overnight (FIG. 10),1 ± 1 µM
same,IC50,[3]; with non-specific hIgG 50 μg/ml overnight (FIG. 10),23 ± 1 µM
same,Proportion of ROR1+ cells in residual tumors,[4],56.4%±6.4%
same,Capacity of tumor cells of PDX that relapsed after therapy to re-engraft immune-deficient mice,[5],readily developed secondary PDX
same,Tumor response of secondary PDX,[6]; 13.4 mg/kg for five consecutive days when PDX reached 300 mm^3 (FIG. 2A),tumor regression
same,Tumor growth / tumor volumes in PDX4- or PDX5-bearing mice,"[6]; cirmtuzumab 10 mg/kg, paclitaxel 13.4 mg/kg or the combination (FIG. 5A)",inhibited tumor growth relative to that of control-treated animals
same,Tumor regrowth after therapy,"[6]; tumors derived from PDX with high proportions of ROR1+ cells (e.g. PDX4 or PDX5), 13.4 mg/kg for five days",re-grew shortly after therapy
same,Proportion of ROR1+ cells in residual tumors,[7],61.7%±7.0%
same,"Cells able to form spheroids, invade Matrigel or re-engraft in tumors of treated mice",[8]; versus matched tumors of untreated mice or the original PDX (FIG. 2C-2E),"enriched for cells that could form spheroids, invade Matrigel, or re-engraft"
same,Proportion of ALDH1-expressing cells in tumors of treated mice,[8]; versus matched tumors of untreated mice or the original PDX (FIG. 7J),higher proportions of ALDH1-expressing cells
same,Mice that developed PDX/mice engrafted,"[9]; 1 × 10^4 cells from PDX5 that relapsed after therapy (Table 8, FIG. 5C)",3/3
same,Mice that developed PDX/mice engrafted,"[9]; 1 × 10^5 cells from PDX5 that relapsed after therapy (Table 8, FIG. 5C)",4/5
same,Tumor incidence (mice with tumors/mice implanted),[9]; 10^3 cells re-implanted,4/5
same,Tumor incidence (mice with tumors/mice implanted),[9]; 10^4 cells re-implanted,5/5
same,Frequency of Tumorigenic Cell,"[9]; PDX5 from paclitaxel-treated mice, ELDA software (Table 6)",1/622
